This is an account of results in patent US20230339978A1, “COMPOUNDS FOR PREVENTION OR TREATMENT OF NEURODEGENERATIVE DISORDERS” (1ST Biotherapeutics, Inc., priority 2020, published 2023).

One may read the pIC50 as the negative decadic logarithm of the IC50, by convention in mol/L.

Assay [1] concerns the target GST-tagged recombinant human RIPK2 (Homo sapiens (Human), UniProt O43353). As to the kind of experiment: RIP2 Kinase Assay (ADP-Glo). It counts as biochemical. As to conditions: 25 µM ATP, MBP substrate, 30° C. 60 minutes. Background: In ADP-Glo the light output rises with the ADP produced.
Description: GST-tagged recombinant human RIPK2(25 ng) is incubated with 5 µL of compounds (0.5% DMSO), 5 µL of MBP (0.5 µg/µl) and 5 µL of ATP (25 µM) in buffer (40 mM Tris, 7.5; 20 mM MgCl2; 0.1 mg/ml BSA; 50 µM DTT). The assay was started by incubating the reaction mixture in a 96-well plate at 30° C. for 60 minutes. After the incubation, 25 µL ADP-Glo reagent was added, and the reaction was incubated at 30° C. for 40 minutes to stop the reaction and degrade residual ATP. The ADP product was then converted to ATP by adding 50 µL per well of detection reagent. Luminescence was detected after 30 minutes room temperature incubation with the Molecular device I3X plate reader. The IC50 values were calculated from a series of percent inhibition values determined at a range of inhibitor concentration using software routines as implemented in the GraphPad Prism 7 software or SigmaPlot 13.0.
The target in assay [2] is His-tagged recombinant human ABL1 (Homo sapiens (Human), UniProt P00519). The conditions noted are these: read-out: c-Abl IC50; 25 µM ATP, Abltide substrate, 30° C. 30-min.
Description: ADP-Glo assay kit was purchased from Promega. Magnesium chloride (MgCl2), bovine serum albumin (BSA), ethylene glycol-bis(β-aminoethyl ether)-N,N,N′,N′-tetraacetic acid (EGTA), tween-20, 1,4-dithiothreitol (DTT) and dimethyl sulfoxide (DMSO) were purchased from Sigma-Aldrich. HEPES buffer was purchased from Gibco. ABL1 kinase and Abltide were purchased from Signalchem.
c-Abl kinase activity was measured by Promega’s ADP-Glo ® Assay. In this assay, His-tagged recombinant human ABL1 (0.25 ng/µl) is incubated with 5 µL of compounds (0.5% DMSO), 5 µL of Abltide (0.01 µg/µl) and 5 µL of ATP (25 µM) in buffer (50 mM HEPES,7.5; 10 mM MgCl2; 1 mM EGTA; 0.05% BSA; 0.01% Tween-20; 2 mM DTT.). The assay was started by incubating the reaction mixture in a 96-well plate at 30° C. for 30-min. After the incubation, 25 µL ADP-Glo reagent was added and the reaction was incubated at room temperature for 40-min to stop the reaction and degrade residual ATP. The ADP product was then converted to ATP by adding 50 µL per well of detection reagent. Luminescence was detected after 30-min room temperature incubation with the Molecular device I3X plate reader. The IC50 values were calculated from a series of percent inhibition values determined at a range of inhibitor concentration using software routines as implemented in the GraphPad Prism 7 software and Sigma Plot 13.0.
Assay [3] has as its system IL-6 secretion in BV-2 cell. As to the kind of experiment: IL-6 Secretion in BV-2 Cell (L18-MDP stimulated, ELISA). It counts as cell-based. The conditions noted are these: BV-2 mouse microglia cells, 10 µg/ml L18-MDP, 24 hr. As to the method: IL-6 Secretion in BV-2 Cell
BV-2 mouse microglia cells were kindly provided from Dr. Bae in Korea Institute of Science and Technology (KIST). BV-2 cells were thawed and suspended in Dulbecco’s modified eagle medium (DMEM) supplemented with 10% fetal bovine serum (FBS) and 1% Penicillin/Streptomycin. Cells were seeded into 96 well plates at 2X10^4 cells/well and allowed to attach for 24 hr. On the day of the experiment, various concentration of compounds were treated, and cells were stimulated with 10 µg/ml L18-MDP. After 24 hr incubation, supernatant was collected for cytokine assay.
Absorbance at 450 nm was measured using SpectraMax I3X microplate reader (Molecular Device). Values of media-only wells were subtracted and % inhibition for each compound concentration relative to the DMSO/L18-MDP-treated controls (100%) was calculated.

SMILES strings stand for the structures. pIC50: −log10 of the molar value.

Chain of GST-tagged recombinant human RIPK2 (O43353 whole entry): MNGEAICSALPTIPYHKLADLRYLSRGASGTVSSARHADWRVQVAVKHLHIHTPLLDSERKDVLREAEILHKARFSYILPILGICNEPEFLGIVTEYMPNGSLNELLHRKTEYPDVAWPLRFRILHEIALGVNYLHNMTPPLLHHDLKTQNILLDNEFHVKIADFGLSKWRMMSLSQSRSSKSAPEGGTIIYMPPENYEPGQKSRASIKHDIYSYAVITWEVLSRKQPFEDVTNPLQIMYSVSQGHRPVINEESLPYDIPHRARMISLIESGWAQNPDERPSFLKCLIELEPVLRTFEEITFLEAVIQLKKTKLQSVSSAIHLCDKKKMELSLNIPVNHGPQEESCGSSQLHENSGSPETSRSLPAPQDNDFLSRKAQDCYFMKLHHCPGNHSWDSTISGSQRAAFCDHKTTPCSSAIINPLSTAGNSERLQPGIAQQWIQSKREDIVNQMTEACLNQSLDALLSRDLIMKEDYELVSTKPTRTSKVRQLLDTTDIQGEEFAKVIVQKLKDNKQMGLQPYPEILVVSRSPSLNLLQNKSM
Chain of His-tagged recombinant human ABL1 (P00519 whole entry): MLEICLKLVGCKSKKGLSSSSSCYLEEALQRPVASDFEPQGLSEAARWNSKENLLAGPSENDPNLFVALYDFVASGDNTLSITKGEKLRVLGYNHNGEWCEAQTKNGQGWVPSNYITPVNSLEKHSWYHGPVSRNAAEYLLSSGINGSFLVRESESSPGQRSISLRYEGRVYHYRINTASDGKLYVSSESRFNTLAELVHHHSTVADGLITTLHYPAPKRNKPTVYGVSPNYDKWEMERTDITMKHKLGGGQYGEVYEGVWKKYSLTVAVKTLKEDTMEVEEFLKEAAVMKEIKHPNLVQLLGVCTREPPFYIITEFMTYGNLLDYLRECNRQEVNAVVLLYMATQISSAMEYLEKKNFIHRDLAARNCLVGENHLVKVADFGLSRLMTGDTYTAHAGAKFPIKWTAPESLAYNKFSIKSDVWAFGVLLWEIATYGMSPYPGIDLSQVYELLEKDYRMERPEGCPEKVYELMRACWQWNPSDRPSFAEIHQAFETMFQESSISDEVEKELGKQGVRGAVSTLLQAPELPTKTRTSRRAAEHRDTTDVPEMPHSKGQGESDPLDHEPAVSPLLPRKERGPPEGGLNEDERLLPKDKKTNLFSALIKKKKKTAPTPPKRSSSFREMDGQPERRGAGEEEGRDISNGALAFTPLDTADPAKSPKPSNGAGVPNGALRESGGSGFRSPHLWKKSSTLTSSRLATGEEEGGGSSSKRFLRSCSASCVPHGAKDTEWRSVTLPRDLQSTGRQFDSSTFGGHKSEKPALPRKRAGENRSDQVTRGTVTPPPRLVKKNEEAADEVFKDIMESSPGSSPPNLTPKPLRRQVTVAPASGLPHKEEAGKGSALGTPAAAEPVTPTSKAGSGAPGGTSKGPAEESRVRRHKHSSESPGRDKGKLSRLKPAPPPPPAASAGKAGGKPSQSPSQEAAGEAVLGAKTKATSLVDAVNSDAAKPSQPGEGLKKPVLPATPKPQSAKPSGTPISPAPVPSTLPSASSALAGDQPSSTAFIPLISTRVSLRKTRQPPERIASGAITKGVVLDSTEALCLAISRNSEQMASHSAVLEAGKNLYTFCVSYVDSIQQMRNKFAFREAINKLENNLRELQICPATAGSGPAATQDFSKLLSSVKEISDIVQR

Consider `Nc1c(-c2ccn3nc(NC(=O)[C@@H]4C[C@@H]4F)cc3c2)cnc2[nH]ccc12` [Example 10, (1S,2S)-N-(5-(4-amino-1H-pyrrolo[2,3-b]pyridin-5-yl)pyrazolo[1,5-a]pyridin-2-yl)-2-fluorocyclopropane-1-carboxamide], for which the pIC50 in assay [1] is 7.04; in assay [2], 7.27; in assay [3], 5.40.

On to `O=C(Nc1cc2cc(-c3cnc4[nH]ccc4c3F)ccn2n1)[C@@H]1C[C@@H]1F` [Example 5, (1 S,2S)-2-fluoro-N-(5-(4-fluoro-1 H-pyrrolo[2,3-b]pyridin-5-yl)pyrazolo[1,5-a]pyridin-2-yl)cyclopropane-1-carboxamide], for which the pIC50 was 7.32 in assay [1], 7.95 in assay [2] and 6.22 in assay [3].

For `O=C(Nc1cc2cc(-c3cnc4[nH]cc(Cl)c4c3Cl)ccn2n1)[C@@H]1C[C@@H]1F` [Example 29, (1S,2S)-N-(5-(3,4-dichloro-1H-pyrrolo[2,3-b]pyridin-5-yl)pyrazolo[1,5-a]pyridin-2-yl)-2-fluorocyclopropane-1-carboxamide], the pIC50 was 7.81 in assay [1], 8.37 in assay [2] and 6.75 in assay [3].

For `Cc1c(-c2ccn3nc(NC(=O)[C@@H]4C[C@@H]4F)cc3c2)cnc2[nH]cc(Cl)c12` [Example 25, (1S,2S)-N-(5-(3-chloro-4-methyl-1H-pyrrolo[2,3-b]pyridin-5-yl)pyrazolo[1,5-a]pyridin-2-yl)-2-fluorocyclopropane-1-carboxamide], the pIC50 is 7.49 in assay [1] and 8.77 in assay [2].

Regarding `COc1c(-c2ccn3nc(NC(=O)[C@@H]4C[C@@H]4F)cc3c2)cnc2[nH]ccc12` [Example 6, (1S,2S)-2-fluoro-N-(5-(4-methoxy-1H-pyrrolo[2,3-b]pyridin-5-yl)pyrazolo[1,5-a]pyridin-2-yl)cyclopropane-1-carboxamide], the values for the negative logarithm of the IC50 (pIC50) in assay [1], in assay [2] and in assay [3] were 6.77, 8.05 and 6.09, respectively.

Consider `O=C(Nc1cc2cc(-c3cnc4[nH]ccc4c3Cl)ccn2n1)[C@H]1C[C@H]1F` [Example 28, (1R,2R)-N-(5-(4-chloro-1H-pyrrolo[2,3-b]pyridin-5-yl)pyrazolo[1,5-a]pyridin-2-yl)-2-fluorocyclopropane-1-carboxamide], for which the pIC50 is 7.67 in assay [1] and 7.86 in assay [2].

Turning to `O=C(Nc1cc2cc(-c3cc4cc[nH]c4nc3Cl)ccn2n1)[C@@H]1C[C@@H]1F` [Example 4, (1S,2S)-N-(5-(6-chloro-1H-pyrrolo[2,3-b]pyridin-5-yl)pyrazolo[1,5-a]pyridin-2-yl)-2-fluorocyclopropane-1-carboxamide], the pIC50 in assay [1] was 7.86; in assay [2], 8.92; in assay [3], 6.46.

In the case of `CSc1c(-c2ccn3nc(NC(=O)[C@@H]4C[C@@H]4F)cc3c2)cnc2[nH]ccc12` [Example 14, (1S,2S)-2-fluoro-N-(5-(4-(methylthio)-1H-pyrrolo[2,3-b]pyridin-5-yl)pyrazolo[1,5-a]pyridin-2-yl)cyclopropane-1-carboxamide], the negative-log IC50 (pIC50) was 6.71 in assay [1] and 7.91 in assay [2].

As to `CC(C)c1c(-c2ccn3nc(NC(=O)[C@@H]4C[C@@H]4F)cc3c2)cnc2[nH]ccc12` [Example 15, (1S,2S)-2-fluoro-N-(5-(4-isopropyl-1H-pyrrolo[2,3-b]pyridin-5-yl)pyrazolo[1,5-a]pyridin-2-yl)cyclopropane-1-carboxamide], the pIC50 in assay [1] was 6.08; in assay [2], 6.80.

Take `O=C(Nc1cc2cc(-c3cnc4[nH]cc(F)c4c3Cl)ccn2n1)[C@@H]1C[C@@H]1F` [Example 30, (1S,2S)-N-(5-(4-chloro-3-fluoro-1H-pyrrolo[2,3-b]pyridin-5-yl)pyrazolo[1,5-a]pyridin-2-yl)-2-fluorocyclopropane-1-carboxamide]: the pIC50 is 7.99 in assay [1], 8.14 in assay [2] and 6.97 in assay [3].

Take `Cc1nc2[nH]ccc2cc1-c1ccn2nc(NC(=O)[C@@H]3C[C@@H]3F)cc2c1` [Example 3, (1S,2S)-2-fluoro-N-(5-(6-methyl-1 H-pyrrolo[2,3-b]pyridin-5-yl)pyrazolo[1,5-a]pyridin-2-yl)cyclopropane-1-carboxamide]: the pIC50 was 7.60 in assay [1], 9.15 in assay [2] and 6.48 in assay [3].

Regarding `Cc1cc2cc(-c3ccn4nc(NC(=O)[C@@H]5C[C@@H]5F)cc4c3)cnc2[nH]1` [Example 8, (1S,2S)-2-fluoro-N-(5-(2-methyl-1H-pyrrolo[2,3-b]pyridin-5-yl)pyrazolo[1,5-a]pyridin-2-yl)cyclopropane-1-carboxamide], the negative-log IC50 (pIC50) in assay [1] is 7.07; in assay [2], 8.40; in assay [3] it was 6.20.

In the case of `N#Cc1c(-c2ccn3nc(NC(=O)[C@@H]4C[C@@H]4F)cc3c2)cnc2[nH]ccc12` [Example 17, (1S,2S)-N-(5-(4-cyano-1H-pyrrolo[2,3-b]pyridin-5-yl)pyrazolo[1,5-a]pyridin-2-yl)-2-fluorocyclopropane-1-carboxamide], the negative logarithm of the IC50 (pIC50) is 7.15 in assay [1] and 7.69 in assay [2].

With `O=C(Nc1cc2cc(-c3cnc4[nH]ccc4c3C3CC3)ccn2n1)[C@@H]1C[C@@H]1F` [Example 16, (1S,2S)-N-(5-(4-cyclopropyl-1 H-pyrrolo[2,3-b]pyridin-5-yl)pyrazolo[1,5-a]pyridin-2-yl)-2-fluorocyclopropane-1-carboxamide], the negative-log IC50 (pIC50) was 6.69 in assay [1] and 7.89 in assay [2].

On to `O=C(Nc1cc2cc(-c3cnc4[nH]cc(F)c4c3)ccn2n1)[C@@H]1C[C@@H]1F` [Example 7, (1S,2S)-2-fluoro-N-(5-(3-fluoro-1 H-pyrrolo[2,3-b]pyridin-5-yl)pyrazolo[1,5-a]pyridin-2-yl)cyclopropane-1-carboxamide], for which the negative logarithm of the IC50 (pIC50) in assay [1] is 7.62; in assay [2], 8.44; in assay [3] it was 6.14.

As to `Cc1c(-c2ccn3nc(NC(=O)[C@@H]4C[C@@H]4F)cc3c2)cnc2[nH]cc(F)c12` [Example 24, (1S,2S)-2-fluoro-N-(5-(3-fluoro-4-methyl-1H-pyrrolo[2,3-b]pyridin-5-yl)pyrazolo[1,5-a]pyridin-2-yl)cyclopropane-1-carboxamide], the values for the pIC50 in assay [1], in assay [2] and in assay [3] were 7.83, 8.54 and 7.12, respectively.

On to `O=C(Nc1cc2cc(-c3cnc4[nH]ccc4c3Cl)ccn2n1)[C@H]1C[C@@H]1F` [Example 27, (1R,2S)-N-(5-(4-chloro-1H-pyrrolo[2,3-b]pyridin-5-yl)pyrazolo[1,5-a]pyridin-2-yl)-2-fluorocyclopropane-1-carboxamide], for which the pIC50 is 7.82 in assay [1], 7.91 in assay [2] and 6.79 in assay [3].

In the case of `Cc1c(-c2ccn3nc(NC(=O)[C@@H]4C[C@H]4F)cc3c2)cnc2[nH]ccc12` [Example 22, (1S,2R)-2-fluoro-N-(5-(4-methyl-1H-pyrrolo[2,3-b]pyridin-5-yl)pyrazolo[1,5-a]pyridin-2-yl)cyclopropane-1-carboxamide], the figures for the negative logarithm of the IC50 (pIC50) in assay [1], in assay [2] and in assay [3] were 7.80, 8.38 and 7.24, respectively.

Regarding `Cc1c[nH]c2ncc(-c3ccn4nc(NC(=O)[C@@H]5C[C@@H]5F)cc4c3)cc12` [Example 12, (1S,2S)-2-fluoro-N-(5-(3-methyl-1H-pyrrolo[2,3-b]pyridin-5-yl)pyrazolo[1,5-a]pyridin-2-yl)cyclopropane-1-carboxamide], the negative-log IC50 (pIC50) in assay [1] was 7.05; in assay [2] it was 8.60; in assay [3], 6.16.

Regarding `Cc1c(-c2ccn3nc(NC(=O)[C@H]4C[C@@H]4F)cc3c2)cnc2[nH]ccc12` [Example 21, (1R,2S)-2-fluoro-N-(5-(4-methyl-1H-pyrrolo[2,3-b]pyridin-5-yl)pyrazolo[1,5-a]pyridin-2-yl)cyclopropane-1-carboxamide], the negative logarithm of the IC50 (pIC50) is 8.08 in assay [1], 8.48 in assay [2] and 7.21 in assay [3].

As for `O=C(Nc1cc2cc(-c3cnc4[nH]ccc4c3Cl)ccn2n1)C1CC1` [Example 23, N-(5-(4-chloro-1H-pyrrolo[2,3-b]pyridin-5-yl)pyrazolo[1,5-a]pyridin-2-yl)cyclopropanecarboxamide], the figures for the negative logarithm of the IC50 (pIC50) in assay [1] and in assay [2] were 7.70 and 8.04, respectively.

Regarding `O=C(Nc1cc2cc(-c3cnc4[nH]ccc4c3Cl)ccn2n1)[C@@H]1C[C@H]1F` [Example 26, (1S,2R)-N-(5-(4-chloro-1H-pyrrolo[2,3-b]pyridin-5-yl)pyrazolo[1,5-a]pyridin-2-yl)-2-fluorocyclopropane-1-carboxamide], the negative logarithm of the IC50 (pIC50) is 7.79 in assay [1] and 7.71 in assay [2].

Consider `CCc1c(-c2ccn3nc(NC(=O)[C@@H]4C[C@@H]4F)cc3c2)cnc2[nH]ccc12` [Example 13, (1S,2S)-N-(5-(4-ethyl-1H-pyrrolo[2,3-b]pyridin-5-yl)pyrazolo[1,5-a]pyridin-2-yl)-2-fluorocyclopropane-1-carboxamide], for which the negative logarithm of the IC50 (pIC50) in assay [1] was 6.89; in assay [2], 7.91.

For the compound `O=C(Nc1cc2cc(-c3cnc4[nH]c(Cl)cc4c3)ccn2n1)[C@@H]1C[C@@H]1F` [Example 18, (1S,2S)-N-(5-(2-chloro-1H-pyrrolo[2,3-b]pyridin-5-yl)pyrazolo[1,5-a]pyridin-2-yl)-2-fluorocyclopropane-1-carboxamide], the negative-log IC50 (pIC50) is 7.52 in assay [1] and 8.44 in assay [2].
